The record followed here is patent EP4737457A1, “POLYSUBSTITUTED MACROCYCLIC COMPOUND, AND PREPARATION METHOD THEREFOR AND USE THEREOF” (Shenzhen Salubris Pharmaceuticals Co., Ltd., priority 2023, dated 2025).

One data set deals with Human Factor XIa (Homo sapiens, UniProt P03951). The experiment in a line: Inhibition of human coagulation Factor XIa by absorbance method (S-2366 substrate, 405 nm). It is filed as biochemical. The settings on record: incubated at 37 °C for 20 minutes; substrate 800 µM; read-out: Recombinant Enzyme FXIa IC50. As to the method:
• Enzyme: Human Factor XIa (ENZYME […], Cat. No. HFXIa 1111a) • Substrate: S-2366™ (CHROMOGENIX, Cat. No. 82109039) • Buffer: 145 mM NaCl, 5 mM KCl, 1 mg/mL PEG 8000, 30 mM HEPES, pH 7.4.
Test compounds dissolved in 100% DMSO at 10 mM were diluted with 100% DMSO to concentrations of 1000 µM, 200 µM, 40 µM, 8 µM, 1.6 µM, 0.32 µM, 0.064 µM, 0.0128 µM, 0.00256 µM, and […]. Then 98 µL of FXIa enzyme solution (77.7 ng/mL) was added to each well of a 96-well plate, with 98 µL of buffer added to blank wells instead. Then, 2 µL of compound at different concentrations was added; DMSO was used instead for blank and control wells. The plate was mixed using a plate shaker and incubated at 37 °C for 20 minutes.
Finally, 100 µL of substrate (800 µM) was added to each well, and the absorbance was measured at 405 nm.
Curve fitting was performed using GraphPad Prism software to calculate the IC50 values.

Another data set deals with Pooled human plasma. Nature of the data set: In vitro anticoagulant effect in human plasma (aPTT, EC1.5x). It is filed as biochemical. As to conditions: 37 °C for 10 minutes. As to the method: aPTT (Lot 220106600), Calcium Chloride (Lot 210305600), Needle Rinse Solution (Lot 211101300): produced by Shenzhen Mindray Bio-Medical Electronics Co., Ltd. Pooled human plasma: collected from healthy individuals using disposable venous blood collection tubes (Liuyang Sanli Medical Technology Development Co., Ltd., Lot 211108, sodium citrate 9:1). Blood was collected, centrifuged at room temperature at 3000 rpm for 10 minutes, and the supernatant was collected and stored for use (Lot 20220606).
Test compounds dissolved in 100% DMSO at 10 mM were diluted with 100% DMSO to concentrations of 0.29 µM, 0.59 µM, 1.17 µM, 2.34 µM, 4.69 µM, 9.38 µM, 18.75 µM, and 37.50 µM. Then 99 µL of pooled human plasma was added to each 1.5 mL centrifuge tube, followed by the addition of 1 µL of compound at different concentrations; 1 µL of DMSO was added to the blank control. The tubes were mixed by repeated manual inversion, centrifuged briefly using a mini centrifuge to collect the samples, and then incubated in a thermostatic water bath at 37 °C for 10 minutes with mixing. The aPTT was measured using a fully automated coagulation analyzer according to the preset program.
Curve fitting was performed using GraphPad Prism software to calculate EC1.5x.

Data set [1] in a line: Pharmacokinetic experiment in rats (iv and PO). The settings on record: male, Sprague-Dawley (SD), rat, plasma, 5 mg/kg.
Source text: Polyethylene glycol 400 (PEG-400, Lot GORKREUT, Shaen Chemical Technology (Shanghai) Co., Ltd.), DMSO (Lot 20200319, Guangdong Guanghua Sci-Tech Co., Ltd.), normal saline (Lot C20052604, Jiangxi Kelun Pharmaceutical Co., Ltd.). LC-MS instrument (Thermo Fisher Ultimate 3000 UPLC, TSQ QUANTUM ULTRA triple quadrupole mass spectrometer, AB SCIEX 5500 QTARP).
SD rats: Male, 180-250 g, purchased from Guangdong Vital River Laboratory Animal Technology Co., Ltd.
The test compound powder was accurately weighed, completely dissolved in DMSO, then PEG-400 was added. The mixture was vortexed and sonicated to mix, followed by the addition of normal saline. The mixture was vortexed and sonicated again to achieve a final concentration of 0.5 mg/mL (DMSO:PEG-400:NS = 5:60:35, V/V/V). The dosing volume was 10 mL/kg for oral gavage and 0.5 mL/kg for intravenous administration.
After intravenous or oral administration to rats, 200 µL of venous blood was collected at 5 min (not collected for oral group), 15 min, 30 min, 1 h, 2 h, 5 h, 7 h, and 24 h into heparinized EP tubes. The blood was centrifuged at 12,000 rpm for 2 minutes, and the plasma was collected and stored at -80 °C until analysis.
A precise amount of the test compound was weighed and dissolved in DMSO to 1 mg/mL as a stock solution. An appropriate volume of the compound stock solution was accurately pipetted and diluted with acetonitrile to prepare standard series solutions. 20 µL of each standard series solution was accurately pipetted and added to 180 µL of blank plasma, vortexed to mix, to prepare plasma samples equivalent to plasma concentrations of 1 ng/mL, 3 ng/mL, 10 ng/mL, 30 ng/mL, 100 ng/mL, 300 ng/mL, 1000 ng/mL, 3000 ng/mL, and 5000 ng/mL. Each concentration was analyzed in duplicate to establish the standard curve. 20 µL of plasma sample was taken, and 200 µL of an internal standard (propranolol, 5 ng/mL) in acetonitrile solution was added. The mixture was vortexed and centrifuged at 4000 rpm for 5 minutes. The supernatant was taken for LC-MS analysis. The LC-MS detection conditions were as follows: Chromatographic Column: Waters ACQUITY™ PREMIER HSS T3, 50*2.1 mm, 1.8 µm.
Mobile phase A: water (0.1% formic acid), mobile phase B: acetonitrile, flow rate: 0.5 mL/min, gradient elution: see Table 2 below.
After determining the plasma drug concentration by LC-MS, the pharmacokinetic parameters following administration to rats were calculated using the non-compartmental model in WinNonlin 6.1 software.

pIC50: −log10 of the molar value.

Chain of Human Factor XIa (P03951 388-625 limits assumed): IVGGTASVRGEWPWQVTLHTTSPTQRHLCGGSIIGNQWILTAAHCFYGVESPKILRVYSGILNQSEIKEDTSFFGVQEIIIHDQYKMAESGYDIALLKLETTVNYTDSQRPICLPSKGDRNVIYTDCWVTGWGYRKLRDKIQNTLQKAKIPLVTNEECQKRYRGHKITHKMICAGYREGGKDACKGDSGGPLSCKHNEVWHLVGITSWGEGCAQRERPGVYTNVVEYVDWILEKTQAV
Chain of Human Factor XIa (P03951 19-387 partner limits assumed): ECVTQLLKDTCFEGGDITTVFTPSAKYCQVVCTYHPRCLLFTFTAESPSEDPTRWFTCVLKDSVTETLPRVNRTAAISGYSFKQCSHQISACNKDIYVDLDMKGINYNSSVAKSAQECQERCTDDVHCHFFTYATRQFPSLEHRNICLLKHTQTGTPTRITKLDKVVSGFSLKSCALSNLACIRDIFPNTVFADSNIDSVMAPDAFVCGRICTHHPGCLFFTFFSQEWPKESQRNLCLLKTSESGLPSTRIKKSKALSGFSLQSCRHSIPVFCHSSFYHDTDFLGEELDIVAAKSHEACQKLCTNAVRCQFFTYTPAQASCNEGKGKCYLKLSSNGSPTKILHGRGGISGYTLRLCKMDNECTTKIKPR

For the molecule `[2H]C([2H])([2H])n1ncc2c1-c1cc(F)c(F)c(c1)[C@@H](n1cnc(-c3cc(Cl)ccc3-n3cc(C(F)(F)F)nn3)cc1=O)CCC[C@@H](C)C(=O)N2` [Compound 2, (3R,7R)-3-(4-(5-chloro-2-(4-(trifluoromethyl)-1H-1,2,3-triazol-1-yl)phenyl) -6-oxopyrimidin-1(6H)-yl)-2^42^5-difluoro-7-methyl-1^1-(methyl-d3)-1^1H-9-aza-1(5,4)-pyrazola-2(1,3)-benzenacyclononaphan-8-one], the pIC50 at Human Factor XIa is 9.44. In addition, the “Human Plasma APTT 1.5x” value with Pooled human plasma stood at 0.24 µM.
Consider `[2H]C([2H])([2H])n1ncc2c1-c1cc(F)c(F)c(c1)[C@@H](n1cnc(-c3c(-n4cc(Cl)nn4)ccc(Cl)c3F)cc1=O)CCC[C@@H](C)C(=O)N2` [Compound 3, (3S,7R)-3-(4-(3-chloro-6-(4-chloro-1H-1,2,3-triazol-1-yl)-2-fluorophenyl)-6-oxopyrimidin-1(6H)-yl)-2^4,2^5-difluoro-7-methyl-1^1-(methyl-d3)-1^1H-9-aza-1(5,4)-pyrazola-2(1,3)-benzenacyclononaphan-8-one], for which, on Human Factor XIa, the negative logarithm of the IC50 (pIC50) is 9.21. Further, in data set [1], the bioavailability turned out to be 15.7%. Moreover, in the data set with Pooled human plasma, the “Human Plasma APTT 1.5x” value is on record as 0.24 µM.
Turning to `[2H]C([2H])([2H])n1ncc2c1-c1cc(F)c(F)c(c1)[C@@H](n1ncc(-c3cc(Cl)ccc3-n3cc(C(F)(F)F)nn3)cc1=O)CCC[C@@H](C)C(=O)N2` [Compound 5, (3S,7R)-3-(4-(5-chloro-2-(4-(trifluoromethyl)-1H-1,2,3-triazol-1-yl)phenyl) -6-oxopyridazin-1(6H)-yl)-2^4,2^5-difluoro-7-methyl-1^1-(methyl-d3)-1^1H-9-aza-1(5,4)-pyrazola-2(1,3)-benzenacyclononaphan-8-one], the negative logarithm of the IC50 (pIC50) at Human Factor XIa is 9.05. In addition, in the data set on Pooled human plasma, the “Human Plasma APTT 1.5x” value was determined as 0.83 µM.
On to `[2H]C([2H])([2H])n1ncc2c1-c1cc(F)c(F)c(c1)[C@@H](n1ncc(-c3c(-n4cc(C(F)(F)F)nn4)ccc(Cl)c3F)c(Cl)c1=O)CCC[C@@H](C)C(=O)N2` [Compound 6, (3S,7R)-3-(5-chloro-4-(3-chloro-2-fluoro-6-(4-(trifluoromethyl)-1H-1,2,3-triazol-1-yl)phenyl)-6-oxopyridazin-1(6H)-yl)-2^42^5-difluoro-7-methyl-1^1-(methyl-d3)-1^1H-9-aza-1(5,4)-pyrazola-2(1,3)-benzenacyclononaphan-8-one], for which, at Human Factor XIa, the negative-log IC50 (pIC50) was 8.97. Moreover, in data set [1], the bioavailability came to 14.1%. Further, the “Human Plasma APTT 1.5x” value in the data set on Pooled human plasma is listed as 0.43 µM.
Consider `[2H]C([2H])([2H])n1ncc2c1-c1cc(F)c(F)c(c1)[C@@H](n1ccc(-c3cc(Cl)ccc3-n3cc(C(F)(F)F)nn3)cc1=O)CCC[C@@H](C)C(=O)N2` [Compound 7, (3S,7R)-3-(4-(5-chloro-2-(4-(trifluoromethyl)-1H-1,2,3-triazol-1-yl)phenyl) -2-oxopyridin-1(2H)-yl)-2^4,2^5-difluoro-7-methyl-1^1-(methyl-d3)-1^1H-9-aza-1(5,4)-pyrazola-2 (1,3)-benzenacyclononaphan-8-one], for which, at Human Factor XIa, the negative-log IC50 (pIC50) is 9.47. The “Human Plasma APTT 1.5x” value in the data set with Pooled human plasma turned out to be 0.22 µM.
Take `[2H]C([2H])([2H])n1ncc2c1-c1cc(F)c(F)c(c1)[C@@H](n1ccc(-c3cc(Cl)ccc3-n3cc(C(F)(F)F)nn3)c(Cl)c1=O)CCC[C@@H](C)C(=O)N2` [Compound 8, (3S,7R)-3-(4-(5-chloro-2-(4-(trifluoromethyl)-1H-1,2,3-triazol-1-yl)phenyl) -3-chloro-2-oxopyridin-1(2H)-yl)-2^4,2^5-difluoro-7-methyl-1^1-(methyl-d3)-1^1H-9-aza-1(5,4)-p yrazola-2(1,3)-benzenacyclononaphan-8-one]: on Human Factor XIa, the negative-log IC50 (pIC50) is 9.82.
Consider `[2H]C([2H])([2H])n1ncc2c1-c1cc(F)c(F)c(c1)[C@@H](n1ccc(-c3cc(Cl)ccc3-n3cc(C(F)(F)F)nn3)c(F)c1=O)CCC[C@@H](C)C(=O)N2` [Compound 9, (3S,7R)-3-(4-(5-chloro-2-(4-(trifluoromethyl)-1H-1,2,3-triazol-1-yl)phenyl)-3-fluoro-2-oxopyridin-1(2H)-yl)-2^4,2^5-difluoro-7-methyl-1^1-(methyl-d3)-1^1H-9-aza-1 (5,4)-pyrazola-2(1,3)-benzenacyclononaphan-8-one], for which, at Human Factor XIa, the pIC50 was 9.52.
Consider `[2H]C([2H])([2H])n1ncc2c1-c1cc(F)c(F)c(c1)[C@@H](n1ccc(-c3cc(Cl)ccc3-n3cc(C(F)F)nn3)cc1=O)CCC[C@@H](C)C(=O)N2` [Compound 10, (3S,7R)-3-(4-(5-chloro-2-(4-(difluoromethyl)-1H-1,2,3-triazol-1-yl)phenyl)-2-oxopyridin-1(2H)-yl)-2^4,2^5-difluoro-7-methyl-1^1-(methyl-d3)-1^1H-9-aza-1(5,4)-pyrazola-2(1,3)-benzenacyclononaphan-8-one], for which the negative logarithm of the IC50 (pIC50) at Human Factor XIa is 9.11. Besides, the “Human Plasma APTT 1.5x” value in the data set on Pooled human plasma is on record as 0.20 µM.
Consider `C[C@@H]1CCC[C@H](n2cnc(-c3c(-n4cc(C(F)(F)F)nn4)ccc(Cl)c3F)cc2=O)c2cc(cc(F)c2F)-c2c(cnn2C(F)F)NC1=O` [Compound 11, (3S,7R)-3-(4-(3-chloro-2-fluoro-6-(4-(trifluoromethyl)-1H-1,2,3-triazol-1-yl)phenyl)-6-oxopyrimidin-1(6H)-yl)-2^4,2^5-difluoro-7-methyl-1^1-difluoromethyl-1^1H-9-aza-1 (5,4)-pyrazola-2(1,3)-benzenacyclononaphan-8-one], for which, on Human Factor XIa, the pIC50 is 9.54. Further, the bioavailability in data set [1] stood at 21.6%. Moreover, the “Human Plasma APTT 1.5x” value in the data set with Pooled human plasma was found to be 0.23 µM.
Regarding `C[C@@H]1CCC[C@H](n2cnc(-c3c(-n4cc(Cl)nn4)ccc(Cl)c3F)cc2=O)c2cc(cc(F)c2F)-c2c(cnn2C(F)F)NC1=O` [Compound 13, (3S,7R)-3-(4-(3-chloro-6-(4-chloro-1H-1,2,3-triazol-1-yl)-2-fluorophenyl)-6-oxopyrimidin-1(6H)-yl)-2^4,2^5-difluoro-7-methyl-1^1-difluoromethyl-1^1H-9-aza-1(5,4)-pyraz ola-2(1,3)-benzenacyclononaphan-8-one], on Human Factor XIa, the pIC50 is 9.40.
The same measure, in the same setting: the value for `C[C@@H]1CCC[C@H](n2cnc(-c3cc(Cl)ccc3-n3cc(Cl)nn3)cc2=O)c2cc(cc(F)c2F)-c2c(cnn2C(F)F)NC1=O` [Compound 14, (3S,7R)-3-(4-(5-chloro-2-(4-chloro-1H-1,2,3-triazol-1-yl)phenyl)-6-oxopyrimidin-1(6H)-yl)-2^4,2^5-difluoro-7-methyl-1^1-difluoromethyl-1^1H-9-aza-1(5,4)-pyrazol a-2(1,3)-benzenacyclononaphan-8-one] was 9.42.
